Assay results as given in patent publication EP0096931B1, “Radiographic imaging agents” (priority 1982, dated 1983).

Experiment: Skeletal imaging with a scintillation camera after intravenous injection of the imaging agent
Assay type: in vivo, human
Conditions: acid or its monosodium salt replaces AMDP in the Example I kit; compared with the Example I result
Protocol: An imaging agent is prepared using this kit by adding about 5 ml of a pertechnetate-Tc99m physiological saline solution, with an activity of about 0.278 x 10^10 Bq (about 75 mCi), from a commercial technetium source. The vial is agitated until the kit components are dissolved. About 1 ml of the agent is slowly injected, over a period of about 30 seconds, into an adult human subject weighing about 75 kg.

SMILES | skeletal images, carrier used instead of AMDP in the kit of Example I
NC(O)(P(=O)(O)O)P(=O)(O)O [methaneaminohydroxydiphosphonic acid] | substantially similar results
NCC(O)(P(=O)(O)O)P(=O)(O)O [ethane-1-hydroxy-2-amino-1,1-diphosphonic acid] | substantially similar results
NCCC(O)(P(=O)(O)O)P(=O)(O)O [propane-1-hydroxy-3-amino-1,1-diphosphonic acid] | substantially similar results
CNC(P(=O)(O)O)P(=O)(O)O [methane-N-methylaminodiphosphonic acid] | substantially similar results
CN(C)C(P(=O)(O)O)P(=O)(O)O [methane-N,N-dimethylaminodiphosphonic acid] | substantially similar results
